Assay results from patent US4473573A, “N-(2-methoxyethyl)-noroxymorphone and pharmaceutical compositions for relieving pain containing same” (Boehringer Ingelheim KG, priority 1982, dated 1984).
Where a name gives a salt, the structure may show the parent alone. Read-outs that look alike come from different tables or passages of the source.

Key:
[1] = writhing test (analgesic property); assay type: in vivo; conditions: s. c.; for ED50: sc
[2] = tested on: morphine-dependent monkeys; assay: withdrawal test in morphine-dependent monkeys; assay type: in vivo
Excerpt: (§1) The non-morphine-like activity profile can be recognized from the absence of typical side effects produced by opiates.
In morphine-dependent monkeys there is found to be increased sensitivity of morphine antagonists which trigger withdrawal symptoms, dependent upon dosage.

[3] = tested on: analgesia produced by morphine; assay: Haffner test, reversal of the analgesia produced by morphine; assay type: in vivo; conditions: s. c.; for ED50: sc, read-out: AD50, Haffner test
acute toxicity (LD50) = conditions: mouse, in vivo, sc; s. c., mice
Excerpt: (§2) The comparison values are 1600 for the standard analgesic morphine and 169 for the agonist-antagonist pentazocine which is used therapeutically as an analgesic.

mice [4] = assay: therapeutic range based upon the effect in the writhing test; assay type: in vivo; conditions: LD50 s. c. based upon the effect in the writhing test
Excerpt: as §2

mice [5] = assay: inhibition of locomotion (sedation); assay type: in vivo; conditions: up to 100 mg/kg for Formula I, comparison substances in or near the therapeutic dosage range
Excerpt: Another advantage of the compound of Formula I over newer substances, not yet used therapeutically, selected from the opioid kappa agonists of the benzomorphane series, to which a high therapeutic range is also ascribed (for example, 1800 for ethylketazocine), is the absence of any strong sedation. This can be recognized in the comparison substances as an inhibition of locomotion in mice in or near the therapeutic dosage range. In the compound of Formula I, however, this effect was not observed in the range tested up to very high doses of 100 mg/kg.

[6] = activity compared with the compound of Formula I (test not named); conditions: for activity relative to the compound of Formula I: compound of Formula I = 1; for effect of etherification of the phenolic hydroxy group on activity: compared with Formula I
[7] = Straub morphine tail phenomenon / compulsive circular motion (typical opiate side effects); assay type: in vivo; conditions: hydrochloride
Excerpt: as §1

mice [8] = conditions: ascribed; opioid kappa agonist of the benzomorphane series; cited from earlier work
[9] = cited from earlier work

## COCCN1CC[C@]23c4c5ccc(O)c4O[C@H]2C(=O)CC[C@@]3(O)[C@H]1C5 [Formula I, N-(2-methoxyethyl)-noroxymorphone]
[1]; relative to morphine
  times stronger than morphine, writhing test: about 36 times
[1]; relative to oxymorphone
  times stronger than oxymorphone, writhing test: about 2.5 times
[1]
  ED50: 0.013 mg/kg
[2]; morphine-dependent monkeys, triggering of withdrawal symptoms
  antagonist strength compared with naloxone: as strong as naloxone
[3]; Haffner test, naloxone = 1
  antagonistic activity relative to naloxone: about 1/10
[3]
  ED50: 0.3 mg/kg
Acute toxicity (LD50)
  LD50: 1350 mg/kg
Mice [4]
  therapeutic range: 103,846
Mice [5]
  inhibition of locomotion (strong sedation): not observed

## CCOCCN1CC[C@]23c4c5ccc(O)c4O[C@H]2C(=O)CC[C@@]3(O)[C@H]1C5 [Formula IIIa]
[6]
  activity relative to the compound of Formula I: 1/20

## COCCN1CC[C@]23c4c5ccc(OC)c4O[C@H]2C(=O)CC[C@@]3(O)[C@H]1C5 [Formula IIIb]
[6]
  effect of etherification of the phenolic hydroxy group on activity: reduces the activity
  activity relative to the compound of Formula I: 1/84

## CCOCCN1CC[C@]23c4c5ccc(OC)c4O[C@H]2C(=O)CC[C@@]3(O)[C@H]1C5 [Formula IIIc]
[6]
  effect of etherification of the phenolic hydroxy group on activity: reduces the activity

## COCCCN1CC[C@]23c4c5ccc(O)c4O[C@H]2C(=O)CC[C@@]3(O)[C@H]1C5 [Formula IIId]
[6]
  activity relative to the compound of Formula I: 1/25

## COCCN1CC[C@]23c4c5ccc(O)c4O[C@H]2C(=O)CC[C@@]3(O)[C@H]1C5 [N-(2-methoxyethyl)-noroxymorphone hydrochloride]
[7]
  Straub morphine tail phenomenon: does not show
  compulsive circular motion: does not show
[2]; after morphine has been withdrawn, hydrochloride
  relieving the withdrawal symptoms in morphine-dependent monkeys: not capable of relieving the withdrawal symptoms
[2]; morphine-dependent monkeys, hydrochloride
  effect on withdrawal symptoms (antagonist behaviour): aggravates the withdrawal symptoms

## CC[C@]12CCN(CC3CC3)[C@H](C(=O)c3ccc(O)cc31)[C@@H]2C [ethylketazocine]
Mice [8]
  therapeutic range: 1800

## CN1CC[C@]23c4c5ccc(O)c4O[C@H]2[C@@H](O)C=C[C@H]3[C@H]1C5 [morphine, reference compound]
[1]
  ED50, writhing test: 0.47 mg/kg
Mice [4]
  therapeutic range: 1600

## C=CCN1CC[C@]23c4c5ccc(O)c4O[C@H]2C(=O)CC[C@@]3(O)[C@H]1C5 [naloxone, reference compound]
[3]
  ED50: 0.03 mg/kg

## O=C1CC[C@@]2(O)[C@H]3Cc4ccc(O)c5c4[C@@]2(CCN3CC2CC2)[C@H]1O5 [naltrexone]
[9]; in vivo
  antagonist character: pure antagonists
[9]; pure antagonists
  analgesic activity: no analgesic activity

## CN1CC[C@]23c4c5ccc(O)c4O[C@H]2C(=O)CC[C@@]3(O)[C@H]1C5 [oxymorphone]
[1]
  ED50: 0.032 mg/kg

## CC(C)=CCN1CCC2(C)c3cc(O)ccc3CC1C2C (centres unmarked) [pentazocine]
Mice [4]
  therapeutic range: 169
